Measurements: US20090176817A1, “Method of Treatment of Diarrhea-Predominant Irritable Bowel Syndrome in a Subject” (priority 2005, published 2009)
Like-named read-outs stand apart in the source and are kept apart here.

Key:
[1] = test system: diarrhea-predominant IBS subjects; assay: Study S241.3.006: safety; format: in vivo, human; conditions: for Constipation: human, in vivo, 12 weeks
Procedure: Safety was evaluated by physical examination, ECG, vital signs, clinical laboratory evaluations, concomitant medications, and AEs. An independent Gastrointestinal Events Review Board (GERB) was established to advise on gastrointestinal (GI) AEs during the course of the study and other safety events as considered necessary.

[2] = clinical; conditions: both, human, in vivo
Procedure: Diurnal variations in cilansetron pharmacokinetics have been evaluated in a randomized, double-blind, placebo-controlled, 2-way crossover study in 9 male and 9 female healthy subjects, aged 21 to 39 years. Subjects were randomized to receive 2 treatments (cilansetron 16 mg tablet and placebo) during the 2 treatment periods. During each treatment period, subjects received a single dose of their assigned treatment on the first day (Day 1), after which they received the same treatment TID for 4 days (Days 2-5). There was a 10-day washout period between treatment periods. Subjects were fasted for at least 2 hours before and following each dose, and heavy physical activity was restricted. Serial blood samples for the measurement of multiple-dose pharmacokinetics of cilansetron were collected up to 24 hours postdose on Day 5.

[3] = test system: diarrhea-predominant IBS subjects; assay: Study S241.3.011: IBS-QOL; format: in vivo, human; conditions: for Mean change in IBS-QoL subscale Body Image / Mean change in IBS-QoL subscale Dysphoria / Mean change in IBS-QoL subscale Food Avoidance / Mean change in IBS-QoL subscale Health Worry / Mean change in IBS-QoL subscale Interference with Activity / Mean change in IBS-QoL subscale Relationship / Mean change in IBS-QoL subscale Sexual / Mean change in IBS-QoL subscale Social Reaction / Mean change in IBS-QoL, Overall: RR (four-week rerandomization) period
Excerpt: Studies S24 1.3.OO6, S24 1.3.0 1 1, and S24 1.3.009 used the following efficacy measurements: • The subjects answered the following three questions with “yes” or “no” using a phone diary at the end of each week: • a) During the last week, did you experience adequate relief of your IBS symptoms, such as abdominal pain, abdominal discomfort, abnormal bowel habits? • b) During the last week, did you experience adequate relief of your abdominal pain and/or discomfort? • c) During the last week, did you experience adequate relief of your abnormal bowel habits? • The subjects rated the following symptoms using the phone diary at the end of each day: • abdominal pain/discomfort (five-point scale); • stool consistency (seven-point Bristol Stool Scale); • stool frequency (number of bowel movements each day); • urgency (five-point scale); • straining (yes or no); • feeling of incomplete defecation (yes or no); • bloating or feeling of abdominal distension (five-point scale). • In Studies S241 A006 and S241.3.009, subjects completed the IBS-QOL Survey at Baseline (Day 1) and at the end of treatment. In Study S24 1.3.0 1 1, subjects completed the IBS-QOL Survey at Baseline (Day 1), at the end of the three-month treatment period, and at the end of rerandomized treatment.
Other secondary efficacy parameters for all three studies included: • Responder rate for the weekly diary questions on adequate relief at each month, where a responder for a month (monthly responder) was defined as a subject who answered the weekly question with “yes” at least twice for that month. The responder rate was the percentage of responders within a treatment group. The all-month responder rate for the weekly diary questions on adequate relief was also evaluated, where an all-month responder was defined as a subject who answered the weekly question with “yes” at least twice for each month. The all-month responder rate was the percentage of all-month responders within a treatment group; • Adequate relief rate for the weekly diary questions was calculated for each subject as the number of weekly assessments with adequate relief (“yes”) divided by the total number of weekly assessments; • Percentage of subjects with adequate relief for the weekly diary questions at each week; • Daily diary questions regarding abdominal pain/discomfort (five-point scale), stool consistency (seven-point scale), stool frequency (number of bowel movements each day), straining (yes or no), urgency (five-point scale), feeling of incomplete evacuation (yes or no), and bloating or feeling of abdominal distention (five-point scale); • QOL data assessed by the IBS-QOL questionnaire; and • Question to determine the interruption of activities.

[4] = both, human, in vivo
Procedure: In a single-dose, crossover study conducted to evaluate the potential for a drug-drug interaction between liquid Maalox and cilansetron, 12 male and 12-female subjects (aged 19-39 years) received single doses of cilansetron 16 mg alone and cilansetron 16 mg+Maalox in a crossover fashion under fasted conditions. Blood samples for measurement of plasma cilansetron pharmacokinetics were collected up to 24 hours postdose following each treatment.
The effect of concomitantly administered antacid (liquid Maalox) on the pharmacokinetics of cilansetron has been evaluated in a single-dose, crossover study in 24 healthy, male and female subjects, aged 19 to 39 years. Subjects received the following two treatments during each of the study periods in a crossover fashion: a single oral dose of cilansetron 16 mg tablet (reference treatment); a single oral dose of cilansetron 16 mg tablet+20 mL oral Maalox liquid administered every 4 hours (test treatment; 4 doses of Maalox in total; cilansetron was administered 5 minutes after the first dose of Maalox). Both cilansetron treatments were administered under fasted conditions.

[5] = both, human, in vivo; remark: listed apart in the source
Procedure: The effect of hepatic impairment on the pharmacokinetics of cilansetron was evaluated in a multiple-dose, parallel group study in 14 healthy and 14 moderately to severely hepatically impaired male and female subjects, aged 41-70 years. Impaired subjects (Child-Pugh score 7 to 11) were matched to healthy subjects by age (±2 years), sex, menstrual status, and smoking history status. All subjects received oral cilansetron 8 mg TID on Days 1 to 5, and a single dose on the morning of Day 6. […] Blood samples were also collected at predose on Day 1, and at predose, 1 hour and 1.5 hours postdose on Day 6, for measurement of cilansetron protein binding in serum.

SMILES: Cc1nccn1C[C@H]1CCc2c(c3cccc4c3n2CCC4)C1=O [Cilansetron, (R)-(−)-4,5,6,8,9,10-hexahydro-10-[(2-methyl-1H-imidazol-1-yl)methyl]-11H-pyrido-[3,2,1-jk]-carbazol-11-one]
- Number of subjects who died ([1]; 2 mg TID, 352 randomized, S241.3.006): 0 n (%)
- Constipation ([1]; female): 23%
- Constipation ([1]; male): 8%
- Cmax ([2]; Cmax): 76.9 ng/mL
- Tmax ([2]; Tmax): 1 h
- Overall IBS-QOL score, mean change from rerandomization Baseline ([3]; C/C): 0.9
- Overall IBS-QOL score, mean change from rerandomization Baseline ([3]; C/P): −4.9
- Overall IBS-QOL score, mean change from rerandomization Baseline ([3]; P/C): 5.1
- Mean change in IBS-QoL subscale Body Image ([3]; C/C group): −0.8
- Mean change in IBS-QoL subscale Dysphoria ([3]; C/C group): +2.2
- Mean change in IBS-QoL subscale Food Avoidance ([3]; C/C group): +0.6
- Mean change in IBS-QoL subscale Health Worry ([3]; C/C group): +0.2
- Mean change in IBS-QoL subscale Interference with Activity ([3]; C/C group): +1.4
- Mean change in IBS-QoL subscale Relationship ([3]; C/C group): +1.7
- Mean change in IBS-QoL subscale Sexual ([3]; C/C group): −1.4
- Mean change in IBS-QoL subscale Social Reaction ([3]; C/C group): +0.3
- Mean change in IBS-QoL, Overall ([3]; C/C group): +0.9
- Mean change in IBS-QoL subscale Body Image ([3]; C/P group): −3.0
- Mean change in IBS-QoL subscale Dysphoria ([3]; C/P group): −6.0
- Mean change in IBS-QoL subscale Food Avoidance ([3]; C/P group): −4.7
- Mean change in IBS-QoL subscale Health Worry ([3]; C/P group): −1.0
- Mean change in IBS-QoL subscale Interference with Activity ([3]; C/P group): −6.4
- Mean change in IBS-QoL subscale Relationship ([3]; C/P group): −3.0
- Mean change in IBS-QoL subscale Sexual ([3]; C/P group): −3.5
- Mean change in IBS-QoL subscale Social Reaction ([3]; C/P group): −5.9
- Mean change in IBS-QoL, Overall ([3]; C/P group): −4.9
- Mean change in IBS-QoL subscale Body Image ([3]; P/C group): +5.0
- Mean change in IBS-QoL subscale Dysphoria ([3]; P/C group): +1.4
- Mean change in IBS-QoL subscale Food Avoidance ([3]; P/C group): +7.9
- Mean change in IBS-QoL subscale Health Worry ([3]; P/C group): +2.1
- Mean change in IBS-QoL subscale Interference with Activity ([3]; P/C group): +7.9
- Mean change in IBS-QoL subscale Relationship ([3]; P/C group): +1.4
- Mean change in IBS-QoL subscale Sexual ([3]; P/C group): +1.4
- Mean change in IBS-QoL subscale Social Reaction ([3]; P/C group): +3.8
- Mean change in IBS-QoL, Overall ([3]; P/C group): +5.1
- IBS-QOL body image, treatment difference ([3]; vs placebo): 6.60
- IBS-QOL dysphoria, treatment difference ([3]; vs placebo): 8.16
- IBS-QOL food avoidance, treatment difference ([3]; vs placebo): 9.64
- IBS-QOL health worry, treatment difference ([3]; vs placebo): 4.05
- IBS-QOL interference with activity, treatment difference ([3]; vs placebo): 10.57
- IBS-QOL overall score, treatment difference in mean change from Baseline at Endpoint ([3]; vs placebo): 7.53
- IBS-QOL relationships, treatment difference ([3]; vs placebo): 4.72
- IBS-QOL sexual, treatment difference ([3]; vs placebo): 5.93
- IBS-QOL social reaction, treatment difference ([3]; vs placebo): 5.53
- AUC (0-inf) Ratio (Treatment B/A) [4]: 100%
- AUC (0-last) Ratio (Treatment B/A) [4]: 100%
- Cmax Ratio (Treatment B/A) [4]: 87%
- AUC and Cmax lower in males than in females ([4]; 16 mg): 56%
- Mean Cmax decrease with Maalox ([4]; 16 mg): 13%
- Mean half-life lower in males than in females ([4]; 16 mg): 41%
- Increase in half-life with hepatic impairment [5]: 2 fold
- AUC increase with hepatic impairment ([5]; 8 mg): 88%
- Cmax increase with hepatic impairment ([5]; 8 mg): 22%
- AUC(0-τ) Ratio ([5]; po, 8 mg): 1.88
- AUC(0-τ), Geom. LS Mean ([5]; po, 8 mg): 178 ng·h/mL
- Cmax ([5]; po, 8 mg): 75.2 (40) ng/mL
- Cmax Ratio ([5]; po, 8 mg): 1.22
- Cmax, Geom. LS Mean ([5]; po, 8 mg): 68.7 ng/mL
- T½ ([5]; po, 8 mg): 4.37 (25) h
- Vz/F ([5]; po, 8 mg): 303 (45) L
